From patent US8669284B2, “Pharmaceutical composition comprising a bi-cyclic compound and method for stabilizing the bi-cyclic compound” (Sucampo AG, priority 2006, dated 2014)

What was measured:
Type in all cases: physicochemical
[1] = Stability of compound 1 in vehicle solution, 55° C. storage, HPLC; conditions: for Concentration of compound 1 after 55° C. storage, day 10: 55° C. for 10 days; for Concentration of compound 1 after 55° C. storage, day 10 / Concentration of compound 1, day 0: percentage based on the theoretical amount; for Concentration of compound 1, day 0: before storage
Description: Compound 1 was dissolved in a vehicle shown in table 1 below to give 240 μg/g solution (sample). The precise concentration of Compound 1 in the solution was determined by means of HPLC (day 0). Then, the solution was put in a hard grass container and kept at 55° C. for 10 days, and then the precise concentration of the compound 1 in the solution was determined by means of HPLC (day 10).
The determination of the concentration of the compound in the sample was carried out as follows. About 0.2 g of the sample was mixed with exactly 2 ml of internal standard solution and then with a dissolving agent shown in Table 1 to give 5 mL of sample solution. About 12 mg of the reference standard compound 1 was weighted precisely and added with acetonitrile to give exactly 100 ml solution. Exactly 0.8 ml of the solution was obtained and added with exactly 4 ml of the internal standard solution, and then added with the dissolving agent to give 10 ml of standard solution.
The fluorescent labeling agent was added to the respective solution, stirred and stood at room temperature. Then, the respective solution in an amount that theoretically gives 3.6 ng of compound 1 was loaded on the column and analyzed under the condition as follows:
Column: 5 mm×25 cm stainless steel column packed with octadecylsilane treated silica gel for HPLC (5 μm)
Mobile phase: mixture of acetonitrile HPLC grade: methanol HPLC grade: ammonium acetate (0.05 mol/L)

[2] = Stability of compound 1 in medium chain fatty acid triglyceride kept with gelatin/glycerin piece at 40° C.; conditions: 60 μg/g in medium chain fatty acid triglyceride with gelatin piece (gelatin 100, glycerin 35 parts by weight), sealed container, 21 days, on the basis of theoretical amount
Description: One hundred (100) parts by weight of gelatin (Type A, high bloom, SKW Biosystems #195F) and 35 parts by weight of glycerin, a plasticizer, were mixed in water and dried to give gelatin piece whose water content was about 4%. Compound 1 was dissolved in medium chain fatty acid triglyceride (USP/NF grade) to give a liquid mixture comprising 60 μg/g of the compound. 0.5 g of the liquid mixture and 0.5 g of gelatin piece were put together in a sealed container and kept at 40° C. for 21 days. The concentration of compound 1 contained in the liquid mixture was determined in the same manner as Example 1. As a result, the amount of the compound 1 at day 21 was 97.0% on the basis of a theoretical amount (60 μg/g).

[3] = Stability of soft gelatin capsule of compound 1 at 40° C.; conditions: fill 240 μg/g in medium chain fatty acid triglyceride; for conc. (% of Initial) 40° C. 1 mo: 1 month; for conc. (% of Initial) 40° C. 2 mo: 2 months
Description: Glycerin in an amount shown in Table 3 was added in an appropriate amount of water, stirred and heated. Then, gelatin 100 parts by weight was added thereto to give gelatin solution. Compound 1 was dissolved in medium chain fatty acid triglyceride (USP/NF grade) to give a fill solution containing 240 μg/g of compound 1. The gelatin solution and the fill solution were loaded on capsule forming and filling machine to give capsule containing the fill solution, and dried to give soft gelatin capsule.
The capsule was put in a sealed container and kept at 40° C. for 2 months. The concentration of compound 1 in the fill solution contained in the capsule was determined after 1 and 2 months storage in the same manner as EXAMPLE 1.

[4] = vehicle glycerin, 240 μg/g solution
[5] = vehicle isopropyl palmitate, 240 μg/g solution
[6] = vehicle linolenic acid (comparative), 240 μg/g
[7] = vehicle oleic acid (comparative), 240 μg/g
[8] = vehicle polyethylene glycol 400, 240 μg/g solution
[9] = vehicle propylene glycol ester of fatty acid, 240 μg/g solution
[10] = vehicle propylene glycol, 240 μg/g solution
[11] = soft gelatin capsule shell gelatin 100, glycerin 45 parts by weight
[12] = soft gelatin capsule shell gelatin 100, glycerin 55 parts by weight

stability of compound 1 ([1]; admixing with a polyol and/or a fatty acid ester other than glyceride, versus comparative vehicles): significantly improved
Concentration of compound 1 after 55° C. storage, day 10 [1, 4]: 78.0%
Concentration of compound 1, day 0 [1, 4]: 92.0%
Concentration of compound 1 after 55° C. storage, day 10 ([1]; vehicle hydrogenated maltose starch syrup (comparative), 240 μg/g): 24.4%
Concentration of compound 1 after 55° C. storage, day 10 [1, 5]: 99.1%
Concentration of compound 1, day 0 [1, 5]: 98.9%
Concentration of compound 1 after 55° C. storage, day 10 [1, 6]: 33.1%
Concentration of compound 1, day 0 [1, 6]: 74.8%
Concentration of compound 1 after 55° C. storage, day 10 [1, 7]: 57.3%
Concentration of compound 1, day 0 [1, 7]: 101.7%
Concentration of compound 1 after 55° C. storage, day 10 [1, 8]: 90.1%
Concentration of compound 1, day 0 [1, 8]: 98.2%
Concentration of compound 1 after 55° C. storage, day 10 [1, 9]: 89.0%
Concentration of compound 1, day 0 [1, 9]: 99.9%
Concentration of compound 1 after 55° C. storage, day 10 [1, 10]: 88.6%
Concentration of compound 1, day 0 [1, 10]: 97.8%
Concentration of compound 1 after 55° C. storage, day 10 ([1]; vehicle sugar alcohol solution derived from corn starch (comparative), 240 μg/g): 26.3%
amount of the compound 1 at day 21 [2]: 97.0%
conc. (% of Initial) 40° C. 1 mo [3, 11]: 100.0%
conc. (% of Initial) 40° C. 2 mo [3, 11]: 98.7%
conc. (% of Initial) 40° C. 1 mo [3, 12]: 97.7%
conc. (% of Initial) 40° C. 2 mo [3, 12]: 94.0%
SMILES: CCCCC(F)(F)[C@@]1(O)CC[C@H]2[C@@H](CC(=O)[C@@H]2CCCCCCC(=O)O)O1 [Compound 1, 7-[(2R,4aR,5R,7aR)-2-(1,1-difluoropentyl)-2-hydroxy-6-oxooctahydrocyclopenta[b]pyran-5-yl]heptanoic acid]
